# From patent US6989263B1, “Method for identifying and using compounds that inactivate HIV-1 and other retroviruses by attacking highly conserved zinc fingers in the viral nucleocapsid protein” (The United States of America as represented by the …, priority 1994, dated 2006)
# “Also recorded” adds a separate entry of the source.
# Target: T1, p7NC (Human immunodeficiency virus type 1 group M subtype B, UniProt P05888)
# T1 construct: The NC protein of HIV-1 (MN) p7NC was expressed in E. coli; made in house; host or cells: E. coli (vector pMAL-c)
# Assay: HPLC analysis of reaction products of purified p7NC with reagent
# Format: biochemical, HIV-1
# Parameters: key to Protein (HPLC): reaction products / Protein (HPLC): reaction rate: formation of non-native, intra-protein disulfide links (designated “Disulfides”); some of the reagents form adducts with the cysteine residues as well (designated “Adducts”); slow: “Slow” reactions are those in which greater than 10% of the p7NC protein remained in its native form after the 10 minute incubation with reagent; very slow: “Very slow” reactions are those in which greater than 50% of the p7NC protein remained in its native form after the 10 minute incubation with reagent; fast: “Fast” reactions result in complete transformation of the p7NC protein to non-native conformations during the 10 minute incubation period
# Conditions: not given
# From the text: Highly purified retroviral NC proteins can be produced by expression from vectors generated through recombinant DNA technology. These proteins when reconstituted with zinc (see, Summers, et al., Protein Science 1:563–567 (1992) for methods), provide the source of the NC proteins containing the zinc fingers that are the targets for attack by the compounds of this invention. When the zinc fingers in NC proteins react with identified compounds, the reaction produces a covalent change in the NC protein, and the modified protein can be separated from the unreacted protein by, for example, reversed phase HPLC.
# Samples of p7NC and apo-p7 were reacted with varying amounts of cupric chloride and resulting products separated by HPLC. The reactions were carried out using 44.3 μM protein (p7NC or apo-p7) in 0.1 M Tris-HCl, pH 7.4, for 6 minutes at room temperature with varying concentrations of CuCl2 to achieve the indicated ratios of reactants, in a final volume of 0.7 ml. Chromatography was carried out on the resulting products at pH 2 (0.05% trifluoroacetic acid) on μBondapak™ C-18 (3.9×300 mm) at 1.0 ml/minute using an acetonitrile gradient (0–17%, 20 ml; 17–20%, 60 ml; 20–60%, 10 ml). Elution positions of unreacted protein (p7NC or apo-p7) are indicated as apo-p7.
# A two-fold excess of NOBA was reacted with p7NC, and the products were separated by HPLC (FIG. 10) as described above for Cu^+2 and p7NC. Elution positions for the reactants (NOBA and unreacted p7NC) and products, reacted p7NC, NOBA, HABA and AzoxyBA are indicated and an elution profile is included in FIG. 10. NOBA and AzoxyBA were supplied by Octamer, Inc. (Mill Valley, Calif.) and used as HPLC standards.
# The disulfide reagent of choice (each available from the Aldrich Chemical Company (Milwaukee, Wis.)) was incubated for 10 minutes with purified p7NC protein (63 μM) at a ratio of 6 molecules of reagent to 1 molecule of NC protein (there are 6 cysteine thiols per NC protein). The formation of non-native protein conformations was monitored by HPLC as described above. […] Generally, the inactivation proceeds by formation of non-native, intra-protein disulfide links (designated “Disulfides”), but some of the reagents form adducts with the cysteine residues as well (designated “Adducts”). “Slow” reactions are those in which greater than 10% of the p7NC protein remained in its native form after the 10 minute incubation with reagent. “Very slow” reactions are those in which greater than 50% of the p7NC protein remained in its native form after the 10 minute incubation with reagent. “Fast” reactions result in complete transformation of the p7NC protein to non-native conformations during the 10 minute incubation period.
row,Structure (SMILES),"reaction with purified p7NC (HPLC), in words"
1,NC(=O)SCC(=O)NNc1ccccc1 [2-(Carbamoylthio)-Acetic Acid 2-Phenylhydrazide],caused intra-chain disulfide formation
2,"CCN1C(=O)C=CC1=O [NEM, N-ethylmaleimide]",form adducts with the p7NC protein

# Same assay, conditions: 63 μM p7NC, 6 reagent : 1 protein, 10 minutes
Structure (SMILES),Protein (HPLC): reaction products,Protein (HPLC): reaction rate
"O=C(O)CCSSCCC(=O)O [3,3-Dithiodipropionic Acid]",Disulfides,(slow) (“Slow” reactions are those in which greater than 10% of the p7NC protein remained in its native form after the 10 minute incubation with reagent)
"Nc1c(SSc2ccc3ccccc3c2N)ccc2ccccc12 [2,2-Dithiobis(1-Naphtylamine)]",Disulfides; also recorded: Adducts,(fast)
"CCOC(=S)SSC(=S)OCC [O,O-Diethyl Dithiobis-(Thioformate)]",Disulfides; also recorded: Adducts,
c1cc(SSc2ccncc2)ccn1 [Aldrithiol-4],Disulfides,
O=[N+]([O-])c1cccc(SSc2cccc([N+](=O)[O-])c2)c1 [3-Nitrophenyl Disulfide],Disulfides,
CS(=O)(=O)c1ccc(SSc2ccc(S(C)(=O)=O)cc2[N+](=O)[O-])c([N+](=O)[O-])c1 [4-Methylsulfonyl-2-Nitrophenyl Disulfide],Disulfides,
CC(=O)Nc1ccc(SSc2ccc(NC(C)=O)cc2)cc1 [4-Acetamidophenyl Disulfide],Disulfides,(slow) (“Slow” reactions are those in which greater than 10% of the p7NC protein remained in its native form after the 10 minute incubation with reagent)
O=[N+]([O-])c1cc(SSc2ccc(Cl)c([N+](=O)[O-])c2)ccc1Cl [4-Chloro-3-Nitrophenyl Disulfide],Disulfides; also recorded: Adducts,
Nc1ccccc1SSc1ccccc1N [2-Aminophenyl Disulfide],Disulfides; also recorded: Adducts,(slow) (“Slow” reactions are those in which greater than 10% of the p7NC protein remained in its native form after the 10 minute incubation with reagent)
Cc1ccc(SSc2ccc([N+](=O)[O-])cc2)cc1 [4-Nitrophenyl p-Tolyl Disulfide],Disulfides; also recorded: Adducts,(slow) (“Slow” reactions are those in which greater than 10% of the p7NC protein remained in its native form after the 10 minute incubation with reagent)
CC(C)OC(=S)SSC(=S)OC(C)C [Isopropylxanthic Disulfide],Disulfides,
"Clc1cc(Cl)c(SSc2cc(Cl)c(Cl)cc2Cl)cc1Cl [2,4,5-Trichlorophenyl Disulfide]",Disulfides,
Nc1cc(Cl)ccc1SSc1ccc(Cl)cc1N [2-Amino-4-Chlorophenyl Disulfide],Disulfides; also recorded: Adducts,(fast)
"COc1cccc(SSc2cccc(OC)c2OC)c1OC [2,3-Dimethoxyphenyl Disulfide]",Adducts,
Cc1ccc([S+]([O-])[S+]([O-])c2ccc(C)cc2)cc1 (stereo not drawn) [p-Tolyl Disulfoxide],Disulfides,(slow) (“Slow” reactions are those in which greater than 10% of the p7NC protein remained in its native form after the 10 minute incubation with reagent)
CCOC(=O)Nc1ccccc1SSc1ccccc1NC(=O)OCC [2-(Ethoxycarboxamido)phenyl Disulfide],Disulfides; also recorded: Adducts,
"Cc1ccc(SSc2ccc([N+](=O)[O-])cc2[N+](=O)[O-])cc1 [2,4-Dinitrophenyl p-Tolyl Disulfide]",Disulfides; also recorded: Adducts,(fast)
Cc1cc(SSc2cc(C)c3ccccc3n2)nc2ccccc12 [4-Methyl-2-Quinolyl Disulfide],Disulfides; also recorded: Adducts,(slow) (“Slow” reactions are those in which greater than 10% of the p7NC protein remained in its native form after the 10 minute incubation with reagent)
c1ccc2nc(SSc3ccc4ccccc4n3)ccc2c1 [2-Quinolyl Disulfide],Disulfides; also recorded: Adducts,(slow) (“Slow” reactions are those in which greater than 10% of the p7NC protein remained in its native form after the 10 minute incubation with reagent)
CSSC(=O)c1ccccc1 [Benzoylmethyl Disulfide],Adducts,
O=[N+]([O-])c1ccc(Cl)c(SSc2cc([N+](=O)[O-])ccc2Cl)c1 [2-Chloro-5-Nitrophenyl Disulfide],Disulfides,
O=[N+]([O-])c1ccc(SSc2ccc([N+](=O)[O-])cc2)cc1 [4-Nitrophenyl Disulfide],Disulfides; also recorded: Adducts,(slow) (“Slow” reactions are those in which greater than 10% of the p7NC protein remained in its native form after the 10 minute incubation with reagent)
CCN(CC)CCSSCCN(CC)CC [2-(Diethylamino)ethyl Disulfide],Disulfides,
"O=C(O)c1cc(SSc2ccc([N+](=O)[O-])c(C(=O)O)c2)ccc1[N+](=O)[O-] [5,5-Dithiobis(2-Nitrobenzoic Acid)]",Disulfides; also recorded: Adducts,(fast)
CC(=O)Nc1ccccc1SSc1ccccc1NC(C)=O [2-Acetamidophenyl Disulfide],Disulfides; also recorded: (Adducts),
"O[C@@H]1CSSC[C@H]1O (relative stereo) [Trans-1,2-Dithiane-4,5-Diol]",Disulfides,(slow) (“Slow” reactions are those in which greater than 10% of the p7NC protein remained in its native form after the 10 minute incubation with reagent)

# Same assay, conditions: after a 10 minute incubation
row,Structure (SMILES),p7NC species in non-native conformations
1,NC(=O)SCC(=O)NNc1ccccc1 [2-(Carbamoylthio)-Acetic Acid 2-Phenylhydrazide],most
